Reference: patent US20230212517A1, “METHODS FOR GENERATING HEMATOPOIETIC STEM CELLS” (The Brigham and Women's Hospital, Inc., priority 2018, published 2023)
“Also recorded” adds a separate entry of the source.

Legend:
zebrafish embryos = assay: HSPC marker expression in chemically treated embryos (whole mount in situ hybridization); assay type: in vivo
Description: (§1) Zebrafish embryos were treated with the following chemical modulators in E3 fish media: 100 uM L-NAME (Fisher Scientific), 50 uM Digitoxigenin (Sigma), 25-50 uM Yoda1 (Cayman Chemical), 1 uM Nanaomycin (Nana; Fisher Scientific), 100 uM Gadolinium chloride (GdCl3; Sigma), 5-10 uM 4α-phorbol 12, 13-didecanaote (4Apdd; Sigma), or GSK205 (10 uM).
Whole mount in situ hybridizations was performed as previously described.

E11.5 AGM cells = assay: Hematopoietic colony formation unit (CFU) and FACS assays on E11.5 AGM cells; assay type: cell-based, mouse; details: for effect on cyclic strain-induced endothelial-to-HSC transition / hematopoietic progenitor formation: in the presence of cyclic strain (stretch)
Description: Pulsating blood vessels like conditions were stimulated in vitro using FLEXCELL FX-4000 cell stretching bioreactor machine. To analyze roles of pharmacological targets in regulating the endothelial-to-HSC transition, mouse embryo-derived AGM or whole mouse embryo were exposed ex vivo with biomechanical stretching, chemicals, or drugs. Next, hematopoietic colony formation assays were performed by incubating mouse AGM-derived cells in StemCell M3434 media for seven days. Serial transplantation of AGM-derived HSCs in lethally irradiated SJL mice were performed. The stem cell frequency upon biomechanical stretching was analyzed using a limiting dilution assay. To characterize properties of AGM-HSC-derived blood cells in primary transplants, percentage chimerism and reconstitution was measured using FACS, globin transcripts were analyzed using quantitative reverse transcriptase-PCR, myeloperoxidase amount was measured using PICOKINE ELISA kit, TCR-β rearrangement was analyzed using PCR for TCR-β locus, pre-immune IG detection was analyzed using Thermo-Fisher Mouse Ig Isotyping kit, and delayed-type hypersensitivity was analyzed by injecting sheep RBC (Rockland Immunochemicals) in the footpad of pre-sensitized mice.
E11.5 AGM were harvested from C57BL6/J Cd45.2 mouse embryos, and a single cell suspension of a three-embryo equivalent of cells was seeded on each well of a BioFlex six-well culture plate (FlexCell). We cultured cells overnight with the application of cyclic strain (Flexcell® FX4000™ Tension System) and/or treatment with chemical modulators (25-50 μM Yoda1, 1 μM Nanaomycin, 100 μM GdCl3, 1 uM GsMTx4, 5-20 μM 4αPDD, 10 uM GSK205). Next, harvested cells were used to perform transplant, fluorescence-activated cell sorting (FACS) analysis, and colony-forming unit (CFU) assays.
E11.5 mouse embryos were harvested from the uterus of the time-mated pregnant female, into sterile glass vials containing FBS, 1 mM glucose, 1% Penicillin-Streptomycin, and/or the selected chemical modulator (25-50 μM Yoda1, 1 μM Nanaomycin, 5-20 μM 4αPDD, or 10 uM GSK205). We placed glass vials in the ex vivo incubator (BTC Engineering, Cambridge, UK) consisting of a roller apparatus (rotating ˜30 rpm), constant gas supply (21% O2, 5% CO2, balance N2) and constant temperature at 37° C. After 24 hours, AGM were harvested to analyze the formation of hematopoietic cells by FACS and CFU assays.
For CFU assays, cells from AGM explant or ex vivo were plated in METHOCULT GF M3434 media (StemCell Technologies). Seven days after seeding, we analyzed their capacity to make granulocyte, erythroid, macrophage, megakaryocyte (GEMM), granulocyte macrophage (GM), granulocyte (G), macrophage (M), and erythroid (E) colonies.
AGM cells from explants and ex vivo were stained with Sca1-Pacific-Blue (E13-161.7, Biolegend) and Flk1-APC-Cy7 (Avas 12α1, BD). Blood from transplanted mice was stained with the following antibody cocktail: Cd45.2-Pacific-Blue (104, Biolegend), Cd45.1-FITC (A20, Biolegend), Cd3-PE (145-2C11, Biolegend), Cd8-PE (53-6.7, Biolegend), Mac1-APC (M1/70, Biolegend), Gr1-APC (108412, Biolegend), Cd19-APC-CY7 (6D5, Biolegend), B220-APC-CY7 (RA3-6B2, Biolegend).

[1] = tested on: cd41:eGFP+ HSCs emerging from flk1:mCherry+ endothelial cells; assay: Time-lapse confocal imaging of cd41:eGFP+ HSCs emerging from flk1:mCherry+ endothelial cells in transgenic embryos; assay type: in vivo, zebrafish
Description: Mice were purchased Cd45.2 (C57BL6/J) and Cd45.1 (SJL) from The Jackson Laboratory and zebrafish morpholinos from GeneTools. Microangiography was performed by injecting fluorescent-labeled dextran dye in the atrium of zebrafish heart and its passage was recorded using live imaging. Immunostaining of zebrafish heart and mouse AGM were analyzed using an inverted fluorescent microscope. Cardiac tamponade, heart rate, and pulse frequency were analyzed in zebrafish embryos using bright field imaging or time-lapse confocal microscopy. The movement of red blood cells in blood vessels was analyzed as well as the endothelial-to-HSC transition in zebrafish transgenic embryos using time-lapse confocal imaging.
as §1
cd41: eGFP were crossed with flk1:mCherry zebrafish and flk1:mCherry with lcr:eGFP zebrafish and injected morpholino in their transgenic embryos. Transgenic embryos were mounted in low-melting-point agarose and a spinning-disk confocal microscope was used to perform time-lapse confocal imaging of cd41:eGFP^+ HSCs emerging from flk1^+ endothelium from 30 to 42 hpf. The relative movement of lcr:eGFP^+ red blood cells was analyzed in the context of flk1:mCherry^+ endothelium. We performed image analysis using IMARIS (Bitplane) software.

Row | Compound | HSPC marker expression / HSPC formation (zebrafish embryos; control embryos) | effect on cyclic strain-induced endothelial-to-HSC transition / hematopoietic progenitor formation (E11.5 AGM cells) | HSPC marker expression / HSPC formation (zebrafish embryos; cdh5-MO embryos) | phenotype of hematopoietic cells after treatment (E11.5 AGM cells; E11.5 AGM cells) | effect on Piezo1 activation (Yoda1)-induced endothelial-to-HSC transition (E11.5 AGM cells; in the presence of Yoda1) | effect on Piezo1 activation (Yoda1)-mediated increase in HSC formation ([1]; embryos concurrently treated with or without Yoda1, also whole mount in situ hybridization) | specificity for Dnmt3b over Dnmt3a ([1]; transgenic embryos 26-42 hpf)
1 | [Cl][Gd]([Cl])[Cl] [GdCl3, Gadolinium chloride] | attenuated HSPC expression in zebrafish embryos to the level of sih-MO embryos | attenuated |  |  |  |  | 
2 | COC(=O)[C@@H](N)CCCNC(=N)N[N+](=O)[O-] [L-NAME] | attenuates HSPC formation |  | produce HSCs; also recorded: does not impact HSPC formation |  |  |  | 
3 | CC1OC(CC(=O)O)CC2=C1C(=O)c1c(O)cccc1C2=O (stereo not drawn) [Nanaomycin] | attenuated HSPC marker expression | attenuates the endothelial-to-HSC transition | attenuated HSPC marker expression | reverts hematopoietic cells into phenotypic endothelial cells | attenuates the endothelial-to-HSC transition | attenuated the Piezo1 activation-mediated increase in HSC formation | specificity of Nanaomycin for Dnmt3b over Dnmt3a
4 | GsMtX4 |  | attenuates the inductive impact of cyclic strain on the endothelial-to-HSC transition |  |  |  |  | 
